Laboratory results taken from patent publication US6417397B1, “N-substituted alkylamino acids for use as amino-protecting groups” (The Regents of the University of California, San Diego, priority 1999, dated 2002).

Test: Acidolysis (rate of scission) of acylated NMeAib amides with 2% TFA in acetonitrile
Assay type: physicochemical
Settings: for t½ of protecting group: mild acidic conditions (2% TFA in acetonitrile)
Description: In accordance with the present invention, it has been discovered that the rate of reaction can be altered simply by modifying X. Thus, for electron-donating X groups the rate of scission (the sensitivity to acidic conditions) increases. The opposite effect holds true for electron-withdrawing X groups. Four p-substituted benzoyl-N—MeAib—Phe—OMe (7a-d) compounds were subjected to acidic conditions (2% trifluoroacetic acid (TFA) in acetonitrile) and the rate of scission measured for each protecting group.
The equation representing the line in FIG. 1 is particularly useful because it allows one to predict the rate of scission for any m-substituted or p-substituted X—C6H4C(O)—NMeAib amide where a for the parent acid is known. […]

[1] = acidolysis with 2% TFA in acetonitrile

COC(=O)[C@H](Cc1ccccc1)NC(=O)C(C)(C)N(C)C(=O)c1ccc(C(F)(F)F)cc1 [CF3, p-CF3—C6H4C(O)—NMeAib—Phe—OMe]
Half-life [1]: 5 h
k [1]: 3.7e-05 ± 2e-06 s⁻¹

COC(=O)[C@H](Cc1ccccc1)NC(=O)C(C)(C)N(C)C(=O)c1ccc(C#N)cc1 [CN, p-CN—C6H4C(O)—NMeAib—Phe—OMe]
Half-life [1]: 8 h
k [1]: 2.3e-05 ± 1e-06 s⁻¹

COC(=O)[C@H](Cc1ccccc1)NC(=O)C(C)(C)N(C)C(=O)c1ccc(Cl)cc1 [Cl, p-Cl—C6H4C(O)—NMeAib—Phe—OMe]
Half-life (2% TFA in acetonitrile): about 2 hours
Half-life [1]: 2 h
k [1]: 8.3e-05 ± 3e-06 s⁻¹

COC(=O)[C@H](Cc1ccccc1)NC(=O)C(C)(C)N(C)C(=O)c1ccc([N+](=O)[O-])cc1 [NO2, p-NO2—C6H4—C(O)—NMeAib—Phe—OMe]
Half-life (2% TFA in acetonitrile): about 12 hours
Half-life [1]: 12 h
k [1]: 1.5e-05 ± 1e-06 s⁻¹

COc1ccc(C(=O)N(C)C(C)(C)C(=O)O)cc1 [p-methoxy-benzoyl-NMeAib]
t½ of protecting group: 0.333 h

p-N(CH3)2C6H4C(O)—NMeAib
half life predicted from the linear free energy equation of FIG. 1 (predicted from σ of the parent acid, X = dimethylamino): about 29 seconds

p-nitro-benzoyl-NMeAib
t½ of protecting group: 12 h
